From patent publication US8461183B2, “PPAR agonist compounds, preparation and uses” (Genfit, priority 2008, dated 2013)

Legend:
Format in all cases: cell-based
hPPARα = molecular target: T1, hPPARα (Homo sapiens, UniProt Q07869); experiment: Gal4-hPPARα chimera transactivation (luciferase) in COS-7 cells; conditions: COS-7 cells, Gal4-hPPARα, 24 hours; for EC50: luciferase, read-out: PPARα EC50; for Emax: relative to maximum activation obtained with fenofibric acid, read-out: PPARα TOP % (maximum activation)
T1 construct: corresponding to the DEF domains (structural elements of the promoter of the PPARs: D=hinge, EF=ligand fixation domain and AF2 fixation site); expressed in transfected cells; host or cells: COS-7 (monkey kidney fibroblasts)
T1 sequence (Q07869 239-466 limits assumed): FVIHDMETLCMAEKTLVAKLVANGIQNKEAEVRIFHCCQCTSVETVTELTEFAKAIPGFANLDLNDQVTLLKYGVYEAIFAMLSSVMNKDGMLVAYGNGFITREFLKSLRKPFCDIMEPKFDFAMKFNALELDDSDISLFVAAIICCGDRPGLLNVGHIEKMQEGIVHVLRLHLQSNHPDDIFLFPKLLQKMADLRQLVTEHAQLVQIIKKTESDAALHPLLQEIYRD
Description: (§1) Activation of PPARs is evaluated in vitro on a line of monkey kidney fibroblasts (COS-7) by measuring the transcriptional activity of chimeras consisting of the DNA binding domain of Gal4 transcription factor of yeast and of the ligand binding domain of the various PPARs of human origin (hPPAR).
(§2) The COS-7 cells are from ATCC and are cultivated in DMEM medium supplemented with 10% (vol/vol) of fetal calf serum, 1% of penicillin/streptomycin (Biochrom, AG), 1% of amino acids (Gibco) and 1% of sodium pyruvate (Gibco). The cells are incubated at 37° C. in a humid atmosphere containing 5% CO2.
(§3) The plasmids Gal4(RE)_TkpGL3, pGal4-hPPARα, pGal4-hPPARγ, pGal4-hPPARδ and pGal4-φ are described in the literature (Raspe E et al., 1999). The constructs pGal4-hPPARα, pGal4-hPPARγ and pGal4-hPPARδ were obtained by cloning, into the pGal4-φ vector, DNA fragments amplified by PCR corresponding to the DEF domains (structural elements of the promoter of the PPARs: D=hinge, EF=ligand fixation domain and AF2 fixation site) of the human nuclear receptors PPAα, PPARγ and PPARδ.
(§4) The adherent COS-7 cells are transfected with 40 μg of DNA per 225 cm^2 flask, with a pGal4-hPPAR/Gal4(RE)_TkpGL3 ratio of 1/10, in the presence of 10% of fetal calf serum. The cells are then detached and seeded in the absence of serum in 384-well plates (2×10^4 cells/well) then incubated for 4 hours at 37° C. The compounds are then diluted in a 96-well plate and then transferred to the 384-well plate. Activation with the test compounds is effected for a further 24 hours at 37° C. in the presence of 1% of synthetic serum Ultroser™ (Biosepra). These last 2 stages are automated by means of a Genesis Freedom 200™ station (Tecan). At the end of the experiment, the cells are lysed and the luciferase activity is determined using the Steady-Lite™ HTS (Perkin Elmer) according to the supplier's recommendations.
The test data are summarized in Table 8-1 below, which presents, for each compound, the values of maximum activation (TOP %) and the EC50 values measured for each isoform of PPAR. The values of maximum activation are expressed in percentages relative to the maximum activations obtained with reference agonists: fenofibric acid for PPARα, rosiglitazone for PPARγ and 2-methyl-4-((4-methyl-2-(4-trifluoromethylphenyl)-1,3-thiazol-5-yl)-methylsulfanyl)phenoxyacetic acid (also called GW501516) for PPARδ.

hPPARγ = molecular target: T2, hPPARγ (Homo sapiens, UniProt P37231); experiment: Gal4-hPPARγ chimera transactivation (luciferase) in COS-7 cells; conditions: 24 hours; for EC50: luciferase, read-out: PPARγ EC50; for Emax: relative to maximum activation obtained with rosiglitazone, read-out: PPARγ TOP % (maximum activation)
T2 construct: corresponding to the DEF domains (structural elements of the promoter of the PPARs: D=hinge, EF=ligand fixation domain and AF2 fixation site); expressed in transfected cells; host or cells: COS-7 (monkey kidney fibroblasts)
T2 sequence (P37231 238-503 limits assumed): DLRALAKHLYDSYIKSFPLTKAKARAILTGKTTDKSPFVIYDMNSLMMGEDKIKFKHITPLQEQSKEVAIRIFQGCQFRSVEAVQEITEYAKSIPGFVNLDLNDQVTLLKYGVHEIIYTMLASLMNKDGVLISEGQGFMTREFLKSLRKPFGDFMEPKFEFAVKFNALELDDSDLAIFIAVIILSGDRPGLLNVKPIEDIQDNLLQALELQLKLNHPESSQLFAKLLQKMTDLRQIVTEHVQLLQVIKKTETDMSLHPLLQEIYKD
Description: as §1, §2, §3, §4
(§5) The test data are summarized in Table 8-1 below, which presents, for each compound, the values of maximum activation (TOP %) and the EC50 values measured for each isoform of PPAR.

hPPARδ = molecular target: T3, hPPARδ (Homo sapiens, UniProt Q03181); experiment: Gal4-hPPARδ chimera transactivation (luciferase) in COS-7 cells; conditions: COS-7 cells, Gal4-hPPARδ, 24 hours; for EC50: luciferase, read-out: PPARδ EC50; for Emax: relative to maximum activation obtained with GW501516, read-out: PPARδ TOP % (maximum activation)
T3 construct: corresponding to the DEF domains (structural elements of the promoter of the PPARs: D=hinge, EF=ligand fixation domain and AF2 fixation site); expressed in transfected cells; host or cells: COS-7 (monkey kidney fibroblasts)
T3 sequence (Q03181 211-439 limits assumed): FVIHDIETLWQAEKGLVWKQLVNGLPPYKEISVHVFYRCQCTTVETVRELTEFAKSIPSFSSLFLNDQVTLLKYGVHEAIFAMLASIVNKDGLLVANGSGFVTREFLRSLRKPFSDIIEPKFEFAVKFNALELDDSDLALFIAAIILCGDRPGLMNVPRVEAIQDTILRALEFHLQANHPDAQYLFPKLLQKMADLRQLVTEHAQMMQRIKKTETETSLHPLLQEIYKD
Description: as §1, §2, §3, §4, §5

Compound | EC50 (hPPARα) [µM] | Emax (hPPARα) [%] | EC50 (hPPARγ) [µM] | Emax (hPPARγ) [%] | EC50 (hPPARδ) [µM] | Emax (hPPARδ) [%]
CC(C)(C)Oc1nc(-c2ccccc2)ccc1COc1ccc(OC(C)(C)C(=O)O)cc1 [Cpd 6, 2-(4-((2-tert-butyloxy-6-phenylpyridin-3-yl)methoxy)phenoxy)-2-methyl-propanoic acid] | 5.43 | 30.3 | 11.8 | 17.3 | 0.489 | 70.7
COc1nc(-c2ccc(C(F)(F)F)cc2)ccc1CNc1ccc(SCC(=O)O)cc1 [Cpd 23, 2-(4-(((2-methoxy-6-(4-(trifluoromethyl)phenyl)pyridin-3-yl)methyl)amino)-phenylthio)ethanoic acid] | 0.044 | 65.3 | 2.84 | 75.6 | 0.501 | 85.4
COc1nc(-c2ccccc2)ccc1COc1ccc(OC(C)C(=O)O)cc1 (centres unmarked) [Cpd 3, 2-(4-((2-methoxy-6-phenylpyridin-3-yl)methoxy)phenoxy)propanoic acid] | 0.432 | 68.7 | 3.24 | 43.6 | 1.2 | 114
CC#CC(CC(=O)O)c1ccc(OCc2ccc(-c3ccccc3)nc2OC)cc1 (centres unmarked) [Cpd 53, 3-(4-((2-methoxy-6-phenylpyridin-3-yl)methoxy)phenyl)hex-4-ynoic acid] | 5.14 | 48.6 | 1.01 | 78 | 10.3 | 9.86
COc1nc(-c2ccccc2)c(Br)cc1CNc1ccc(SCC(=O)O)cc1 [Cpd 29, 2-(4-(((2-methoxy-5-bromo-6-phenylpyridin-3-yl)methyl)amino)phenylthio)-ethanoic acid] | 3.85 | 59.3 | 8.43 | 57.7 | 10.1 | 85.6
COc1ncc(-c2ccccc2)cc1CNc1ccc(SCC(=O)O)cc1 [Cpd 26, 2-(4-(((2-methoxy-5-phenylpyridin-3-yl)methyl)amino)phenylthio)ethanoic acid] | 20.9 | 67 | 44.1 | 208 | 31.1 | 138
COc1nc(-c2ccc(C(F)(F)F)cc2)ccc1CNc1ccc(SC(C)(C)C(=O)O)cc1 [Cpd 22, 2-(4-(((2-methoxy-6-(4-(trifluoromethyl)phenyl)pyridin-3-yl)methyl)amino)-phenylthio)-2-methylpropanoic acid] |  | 75.9 | 1.05 | 88.9 | 1.15 | 102

Results, then the compound that gave them:

EC50 (hPPARα) [µM] | Emax (hPPARα) [%] | EC50 (hPPARγ) [µM] | Emax (hPPARγ) [%] | EC50 (hPPARδ) [µM] | Emax (hPPARδ) [%] | Compound
1.43 | 61.9 | 6.93 | 24.1 | 3.22 | 96.1 | COc1nc(-c2ccccc2)ccc1CNc1cccc(OC(C)(C)C(=O)O)c1 [Cpd 13, 2-(3-(((2-methoxy-6-phenylpyridin-3-yl)methyl)amino)phenoxy)-2-methyl-propanoic acid]
0.175 | 52.2 | 1.94 | 100 | 1.39 | 95.3 | COc1nc(-c2ccc(-c3ccccc3)cc2)ccc1CNc1ccc(CCC(=O)O)cc1 [Cpd 39, 3-(4-(((2-methoxy-6-(parabiphenyl)pyridin-3-yl)methyl)amino)phenyl)-propanoic acid]
3.62 | 51.1 | 4.04 | 73.2 | 0.408 | 123 | COc1ncc(-c2ccc(Cl)cc2)cc1CNc1ccc(CCC(=O)O)cc1 [Cpd 49, 3-(4-(((5-(4-chlorophenyl)-2-methoxypyridin-3-yl)methyl)amino)phenyl)-propanoic acid]
1.29 | 50.5 | 2.23 | 70.9 | 1.93 | 93.1 | CCOc1nc(-c2ccccc2)ccc1CNc1ccc(CCC(=O)O)cc1 [Cpd 51, 3-(4-(((2-ethoxy-6-phenylpyridin-3-yl)methyl)amino)phenyl)propanoic acid]
7.97 | 34.5 | 4.85 | 42.2 | 3.2 | 92.1 | CC(C)Oc1nc(-c2ccccc2)ccc1CNc1ccc(CCC(=O)O)cc1 [Cpd 54, 3-(4-(((2-isopropyloxy-6-phenylpyridin-3-yl)methyl)amino)phenyl)propanoic acid]
0.165 | 66.7 | 0.955 | 87.2 | 0.08 | 107 | COc1nc(-c2cccc(C(F)(F)F)c2)ccc1CNc1ccc(CCC(=O)O)cc1 [Cpd 40, 3-(4-(((2-methoxy-6-(3-(trifluoromethyl)phenyl)pyridin-3-yl)methyl)amino)-phenyl)propanoic acid]
7.36 | 35.9 | 27.2 | 72.1 | 17 | 107 | COc1ncc(-c2ccccc2)cc1CNc1ccc(CCC(=O)O)cc1 [Cpd 41, 3-(4-(((2-methoxy-5-phenylpyridin-3-yl)methyl)amino)phenyl)propanoic acid]
26.4 | 35.9 | 9.57 | 58.2 | 16.7 | 68.1 | COc1nc(OC)c(-c2ccccc2)cc1CNc1ccc(CCC(=O)O)cc1 [Cpd 48, 3-(4-(((2,6-dimethoxy-5-phenylpyridin-3-yl)methyl)amino)phenyl)propanoic acid]
33.3 | 58.4 | 24.3 | 53.7 | 16.2 | 103 | COc1nc(-c2ccccc2)ccc1CNc1cccc(OCC(=O)O)c1 [Cpd 14, 2-(3-(((2-methoxy-6-phenylpyridin-3-yl)methyl)amino)phenoxy)ethanoic acid]
3.64 | 99.8 | 10.6 | 98.7 | 41.1 | 72.9 | COc1nc(-c2ccccc2)ccc1CNc1ccc(SC(F)(F)C(=O)O)cc1 [Cpd 27, 2-(4-(((2-methoxy-6-phenylpyridin-3-yl)methyl)amino)phenylthio)-2,2-difluoroethanoic acid]
